This is an account of results in US10525064B2, “Anticancer adjuvant containing panaxadiol ginsenocide compound” (priority 2015, dated 2020).

In brackets after ≈: the same amount, converted by molar mass.

The subject of data set [1] is MCF-7 cells. Kind of data set: WST-1 viability assay in siRNA-treated cells with doxorubicin or tamoxifen. The format is cell-based, human. The following applies: 5 μM doxorubicin or 20 μM tamoxifen, 24 hours, FIG. 6B; for change of anticancer activity where mitochondrial fission was induced by Mfn1 or Mfn2 siRNA: Mfn2 versus Mfn1 inhibition; for anticancer activity (viability of MCF-7 cells): siRNA-introduced cells. How it is done: Meanwhile, each of the synthesized siRNAs was introduced into MCF-7 cells and cultured for 12 hours. The cells were cultured further for 48 hours in a normal medium containing no siRNA, treated with 5 μM doxorubicin or 20 μM tamoxifen, and cultured for 24 hours. Upon completion of culture, the viability of the MCF-7 cells was compared by WST-1 assay (FIG. 6B). In particular, an experimental group not treated with doxorubicin or tamoxifen was used as a control.

Data set [2] relates to MCF-7 cells. Put plainly: WST-1 viability assay, PPD-type ginsenoside compounds alone. The format is cell-based, human. The conditions noted are these: 0-200 μg/mL, 24 hours, FIG. 1. How it is done: First, MCF-7 cells, a human breast cancer cell line, were inoculated into DMEM medium containing 10% FBS and 1% penicillin/streptomycin, cultured in conditions of 5% CO2 and 37° C. When the cultured MCF-7 cells were saturated the cells were sub-cultured at intervals of 3 days to 5 days.
Then, the cultured MCF-7 cells were treated with various concentrations (0 μg/mL, 5 μg/mL, 10 μg/mL, 20 μg/mL, 50 μg/mL, 100 μg/mL, or 200 μg/mL) of PPD-type ginsenoside compounds (F2, Rh2, C-K, or PPD) for 24 hours, and the viability of these cells was measured by performing WST-1 assay on the MCF-7 cells (FIG. 1). In particular, WST-1 assay was performed by inoculating each of the MCF-7 cells in a medium containing 10% EZ-Cytox and reacting at 37° C. for 1.5 hours. The level of water-soluble formazan dye produced by the viable cells was measured by absorbance at 450 nm and the results were analyzed to calculate the cell viability of the cells.
(Formazan colour is commonly taken as a measure of viable cells.)

For data set [3], the system named is cytochrome-C release in MCF-7 cells. Kind of data set: Cytochrome-C release from mitochondria, immunofluorescent staining. The format is cell-based, human. The following applies: for level of cytochrome-C release compared to doxorubicin treatment alone: then doxorubicin 5 μg/mL 4 hours; for cells in which cytochrome-C was released, of the entire cells: 6 hours after the treatment, FIG. 4B. How it is done: MCF-7 cells were charged with a medium containing C-K or PPD (10 μg/mL) and cultured for 24 hours, and the medium was replaced with a medium containing doxorubicin (5 μg/mL) and cultured for 0 hours or 4 hours. The cells, upon completion of culture, were fixed with 4% paraformaldehyde, perforated by adding 0.5% Triton X-100 solution thereto, and the cells were immunostained with anti-cytochrome-C antibody for 30 minutes. Upon completion of the staining, the cells were washed with PBS, reacted with fluorescently-labeled secondary antibody for 30 minutes, washed with PBS, and then photographed using a confocal microscope to measure the levels of fluorescence developed (FIG. 4A).
In this regard, the present inventors have attempted to confirm whether the level of cytochrome-C release can be changed by the treatment time of doxorubicin. That is, the immunostaining was performed in the same manner as described above, except that MCF-7 cells were charged with a medium containing C-K or PPD (10 μg/mL) and cultured for 24 hours, and the medium was replaced with a medium containing doxorubicin (5 μg/mL), and the cells which were cultured for 0 hours, 0.5 hours, 1 hour, 2 hours, 4 hours, or 6 hours were used. Then, the number of cells in which cytochrome-C was released from mitochondria to cytoplasm was measured (FIG. 4B). In particular, an experimental group not treated with ginsenoside was used as a control.

The subject of data set [4] is phosphorylated JNK, cleaved-PARP, cleaved-caspase-9 in MCF-7 cells. Kind of data set: Western blot of apoptosis-related proteins. The format is cell-based, human. The following applies: for level of cleaved-caspase-9 / levels of phosphorylated JNK and cleaved-PARP: ginsenoside 10 μg/mL with doxorubicin 5 μg/mL. How it is done:
MCF-7 cells were charged with a medium containing C-K or PPD (10 μg/mL) and cultured for 12 hours, and the medium was replaced with a medium containing C-K or PPD (10 μg/mL) and doxorubicin (0 μg/mL or 5 μg/mL) and cultured for 24 hours. The cells, upon completion of culture, were disrupted and western blot analyses were performed treated with respect to anti-phosphorylated JNK antibody, anti-PARP antibody, anti-cleaved-PARP antibody, and anti-caspase-9 antibody or anti-cleaved-caspase-9 antibody (FIG. 3A).
Accordingly, MCF-7 cells were charged with a medium containing PPD (10 μg/mL) and cultured for 12 hours, and the medium was replaced with a medium containing PPD (10 μg/mL) and doxorubicin (5 μg/mL) and cultured for 0 hours, 0.5 hours, 1 hour, 2 hours, 4 hours, or 6 hours. The same western blot analysis was performed using the cultured cells (FIG. 3B). In particular, as a comparative group, cells cultured in a medium containing doxorubicin alone were used instead of the medium containing PPD and doxorubicin.
Background: In western blotting, separated proteins are transferred to a membrane and probed.

The test system of data set [5] is MCF-7 cells. Put plainly: WST-1 viability assay, ginsenoside pretreatment followed by doxorubicin or tamoxifen. The format is cell-based. The following applies: for effect on anticancer activity of doxorubicin: then doxorubicin 5 μg/mL 24 hours, FIG. 2A; for anticancer activity of doxorubicin with ginsenoside compared to doxorubicin alone: ginsenoside 10 μg/mL, doxorubicin 0-50 μg/mL. As to the method:
Specifically, each of the PPD-type ginsenoside compounds (F2, Rh2, C-K, or PPD) at a concentration of 10 μg/mL was added to MCF-7 cells, cultured for 12 hours, and treated with 20 μM tamoxifen or doxorubicin (5 μg/mL) and cultured for 24 hours. Upon completion of the cultivation, the viability of MCF-7 cells was compared by WST-1 assay (FIG. 2A).
In this regard, to determine whether the C-K or PPD affects the treatment concentration of doxorubicin, the PPD-type ginsenoside compound (C-K or PPD) was added to the MCF-7 cells at a concentration of 10 μg/mL and cultured for 12 hours. Then, the MCF-7 cells were treated with doxorubicin at various concentrations (0 μg/mL, 0.1 μg/mL, 0.5 μg/mL, 1 μg/mL, 2 μg/mL, 5 μg/mL, 10 μg/mL, and 50 μg/mL) and cultured for 24 hours. Upon completion of the culture, the viability of the MCF-7 cells and the LC50 values calculated therefrom were compared by WST-1 assay (FIG. 2B).

The test system of data set [6] is Drp1, Fis1, OPA-3, Mfn1, Mfn2, OPA1 in MCF-7 cells. Kind of data set: Western blot of mitochondrial fission and fusion proteins. Format: cell-based, human. The conditions noted are these: ginsenoside 10 μg/mL, 24 hours, FIG. 5B. How it is done: Accordingly, western blot analysis was performed with respect to each of the cultured cells and the expression levels of the proteins (Drp1, Fis1, and OPA-3) involved in mitochondrial fission and those of the proteins (Mfn1, Mfn2, and OPA1) involved in mitochondrial fusion were compared (FIG. 5B).

Data set [7] concerns mitochondria of MCF-7 cells. Put plainly: Mitochondria immunostaining with anti-Tom-20 antibody. The format is cell-based, human. The following applies: ginsenoside 10 μg/mL, 24 hours, FIG. 5A. As to the method:
That is, MCF-7 cells were charged with a medium containing C-K or PPD (10 μg/mL) and cultured for 24 hours. The cells, upon completion of culture, were fixed with 4% paraformaldehyde, perforated by adding 0.5% Triton X-100 solution thereto, and mitochondria of the cells were immunostained with anti-Tom-20 antibody. Upon completion of staining, the cells were washed with PBS and then photographed using a confocal microscope to measure the levels of fluorescence developed (FIG. 5A).

Data set [8] concerns MCF-7 cells. Put plainly: Anticancer activity with PARP inhibitor or caspase-9 inhibitor pretreatment. The format is cell-based, human. The following applies: FIG. 3C; for anticancer activity with PARP activity inhibitor, ginsenoside and doxorubicin treated simultaneously: 3-AB pretreatment, ginsenoside 10 μg/mL, doxorubicin 5 μg/mL. How it is done:
Specifically, a medium containing C-K or PPD (10 μg/mL) was added to MCF-7 cells pretreated with Z-LEHD-FMK (i.e., an inhibitor of caspase-9) or 3-AB (i.e., an inhibitor of PARP) and cultured for 12 hours. The medium was then replaced with a medium containing doxorubicin (0 μg/mL or 5 μg/mL) and cultured for 24 hours. The same western blot analysis was performed using the cultured cells (FIG. 3C).

Setting [9] is: ginsenoside 10 μg/mL 24 hours, FIG. 4A.
[10] abbreviates: ginsenoside 10 μg/mL 24 hours, then doxorubicin 5 μg/mL.

On to `CC/C(=C(\c1ccccc1)c1ccc(OCCN(C)C)cc1)c1ccccc1` [tamoxifen], for which, in the data set on MCF-7 cells [1], the “change of anticancer activity where mitochondrial fission was induced by Mfn1 or Mfn2 siRNA” value is listed as “no difference in anticancer activity” and the “anticancer activity (viability of MCF-7 cells)” value is “showed anticancer activity”.
In the case of `CC(C)=CCC[C@](C)(O[C@@H]1OC(CO)[C@@H](O)C(O)C1O)C1CC[C@]2(C)C1[C@H](O)CC1[C@@]3(C)CCC(O)C(C)(C)C3CC[C@]12C` (stereo partly shown) [C-K, compound-K], the “anticancer activity (viability of MCF-7 cells)” value in the data set with MCF-7 cells [2] is recorded as “relatively excellent anticancer activity”. The “level of cytochrome-C release compared to doxorubicin treatment alone” value in data set [3] (setting [9]) is “increased the level of cytochrome-C release”. Also, the “cells in which cytochrome-C was released, of the entire cells” value (shortened to “cells in which cytochrome-C was released”) in data set [3] (setting [10]) turned out to be 20%. In addition, in data set [4] (24 hours, FIG. 3A), the “level of cleaved-caspase-9” value is recorded as “significantly increased”; the “levels of phosphorylated JNK and cleaved-PARP” value is recorded as “not affected”. Also, in the data set with MCF-7 cells [5] (ginsenoside 10 μg/mL 12 hours), the “effect on anticancer activity of doxorubicin” value (“effect on anticancer activity” below) is recorded as “could enhance the anticancer activity of doxorubicin”. The “anticancer activity of doxorubicin with ginsenoside compared to doxorubicin alone” value in the data set on MCF-7 cells [5] (FIG. 2B) is on record as “increased”. Moreover, in data set [6], the “expression level of Mfn2 (mitochondrial fusion protein)” value was “decreased” and the “expression level of OPA-3 (mitochondrial fission protein)” value is listed as “increase”. For the same molecule, the mitochondrial damage result in data set [7] is given as “damage was observed”. For the same molecule, the “anticancer activity with PARP activity inhibitor, ginsenoside and doxorubicin treated simultaneously” value in the data set on MCF-7 cells [8] is “slightly recovered”.
Turning to `CC(C)=CCC[C@](C)(O[C@@H]1O[C@H](CO)[C@@H](O)[C@H](O)[C@H]1O)[C@H]1CC[C@]2(C)[C@@H]1[C@H](O)C[C@@H]1[C@@]3(C)CC[C@H](O[C@@H]4O[C@H](CO)[C@@H](O)[C@H](O)[C@H]4O)C(C)(C)[C@@H]3CC[C@]12C` [F2, reference compound], the “LC50 of doxorubicin treated simultaneously with ginsenoside” value in the data set with MCF-7 cells [5] (ginsenoside 10 μg/mL 12 hours, then doxorubicin 0-50 μg/mL 24 hours, FIG. 2B) is listed as “about 10 μg/mL”. Besides, the “effect on anticancer activity” value in the data set on MCF-7 cells [5] (ginsenoside 10 μg/mL 12 hours) is “no particular effect on doxorubicin”.
For the molecule `COc1cccc2c1C(=O)c1c(O)c3c(c(O)c1C2=O)C[C@@](O)(C(=O)CO)C[C@@H]3O[C@H]1C[C@H](N)[C@H](O)[C@H](C)O1` [doxorubicin, reference compound], the “cells in which cytochrome-C was released” value in data set [3] (doxorubicin 5 μg/mL alone (control)) is on record as 7%. Moreover, the “level of cytochrome-C release compared to no doxorubicin treatment” value in data set [3] (doxorubicin 5 μg/mL, 4 hours, FIG. 4A) is on record as “increased the level of cytochrome-C release”. Further, in the data set on MCF-7 cells [1], the “change of anticancer activity where mitochondrial fission was induced by Mfn1 or Mfn2 siRNA” value is listed as “further increased” and the “anticancer activity (viability of MCF-7 cells)” value is “significantly high level of anticancer activity”. Further, in data set [4] (doxorubicin 5 μg/mL, 24 hours, FIG. 3A), the “levels of phosphorylated JNK, cleaved-PARP, and cleaved-caspase-9” value was “increased”. Further, the CC50 with MCF-7 cells [5] (Homo sapiens, MCF7, 24 h, read-out: LC50 of doxorubicin) was roughly 10 µg/mL (≈ 18.4 µM). For the same molecule, the “anticancer effect of doxorubicin with PARP or caspase-9 activity inhibitor” value with MCF-7 cells [8] (Z-LEHD-FMK or 3-AB pretreatment, doxorubicin 5 μg/mL 24 hours) is given as “inhibited”.
Regarding `CC(C)=CCC[C@](C)(O)[C@H]1CC[C@]2(C)[C@@H]1[C@H](O)C[C@@H]1[C@@]3(C)CC[C@H](O)C(C)(C)[C@@H]3CC[C@]12C` [PPD, protopanaxadiol], the “anticancer activity (viability of MCF-7 cells)” value in the data set on MCF-7 cells [2] is on record as “relatively excellent anticancer activity”. Moreover, the “level of cytochrome-C release compared to doxorubicin treatment alone” value in data set [3] (setting [9]) is “increased the level of cytochrome-C release”. The “cells in which cytochrome-C was released” value in data set [3] (setting [10]) is listed as 43%. Moreover, the “formation of cleaved-PARP and cleaved-caspase-9 according to treatment time” value in data set [4] (PPD 10 μg/mL with doxorubicin 5 μg/mL, 0-6 hours, versus doxorubicin alone, FIG. 3B) is recorded as “formed more rapidly”. For the same molecule, in data set [4] (24 hours, FIG. 3A), the “level of cleaved-caspase-9” value was “significantly increased”; the “levels of phosphorylated JNK and cleaved-PARP” value is “not affected”. Moreover, the “effect on anticancer activity” value with MCF-7 cells [5] (ginsenoside 10 μg/mL 12 hours) is given as “could enhance the anticancer activity of doxorubicin”. The “anticancer activity of doxorubicin with ginsenoside compared to doxorubicin alone” value in the data set with MCF-7 cells [5] (FIG. 2B) is reported as “increased”. Also, in data set [6], the “expression level of Mfn2 (mitochondrial fusion protein)” value is reported as “decreased” and the “expression level of OPA-3 (mitochondrial fission protein)” value is reported as “increase”. Besides, the mitochondrial damage result in data set [7] is “damage was observed”. For the same molecule, the “anticancer activity with PARP activity inhibitor, ginsenoside and doxorubicin treated simultaneously” value with MCF-7 cells [8] is on record as “slightly recovered”.
